From paper PMC7698448, “Design, Synthesis, and Biological Evaluation of Pyridazinones Containing the (2-Fluorophenyl) Piperazine Moiety as Selective MAO-B Inhibitors” (Molecules, 2020)
“Also recorded” adds a separate entry of the source.

Columns and labels:
MAO-B [1] = target: T1, MAO-B (Homo sapiens, UniProt P27338); assay: Recombinant human MAO-B inhibition assay (benzylamine substrate); conditions: for SI (IC50 of MAO-A/IC50 of MAO-B): selectivity index for MAO-B; for Times more potent on MAO-B than lazabemide: ratio of MAO-B potency versus reference reversible inhibitor lazabemide
T1 sequence (P27338 1-520): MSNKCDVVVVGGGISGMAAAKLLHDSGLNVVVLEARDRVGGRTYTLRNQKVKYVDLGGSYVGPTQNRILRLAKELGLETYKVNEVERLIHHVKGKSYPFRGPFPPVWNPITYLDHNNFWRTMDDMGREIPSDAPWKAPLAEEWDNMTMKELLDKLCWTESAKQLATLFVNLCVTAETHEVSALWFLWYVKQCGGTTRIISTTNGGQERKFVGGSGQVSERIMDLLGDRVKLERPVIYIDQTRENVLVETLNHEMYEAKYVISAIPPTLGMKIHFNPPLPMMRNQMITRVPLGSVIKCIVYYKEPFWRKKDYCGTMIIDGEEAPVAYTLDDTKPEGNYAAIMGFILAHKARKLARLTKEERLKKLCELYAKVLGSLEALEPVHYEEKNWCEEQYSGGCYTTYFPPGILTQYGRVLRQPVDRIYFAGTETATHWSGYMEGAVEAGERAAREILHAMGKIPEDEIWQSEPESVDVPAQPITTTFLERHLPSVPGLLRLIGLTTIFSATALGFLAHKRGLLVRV
Experimental: Recombinant human MAO-A and MAO-B inhibitory activities of were continuously assayed as described previously [37], using kynuramine (0.06 mM) and benzylamine (0.3 mM), respectively. […] MAO-A and MAO-B inhibitory activities were measured after preincubating enzymes and inhibitors for 15 min. Enzymes and chemicals were obtained from Sigma-Aldrich (St. Louis, MO, USA).
(§2) Kinetic experiments were carried out at five substrate and three inhibitor concentrations [38].

recombinant human MAO-A = target: T2, recombinant human MAO-A (Homo sapiens, UniProt P21397); assay: Recombinant human MAO-A inhibition assay (kynuramine substrate); assay type: biochemical; conditions: kynuramine 0.06 mM, 15 min preincubation; for remaining activity at 10 µM: inhibitor 10 µM, read-out: Residual Activity (%) MAO-A (10 µM)
T2 construct: purchased Sigma-Aldrich
T2 sequence (P21397 1-527): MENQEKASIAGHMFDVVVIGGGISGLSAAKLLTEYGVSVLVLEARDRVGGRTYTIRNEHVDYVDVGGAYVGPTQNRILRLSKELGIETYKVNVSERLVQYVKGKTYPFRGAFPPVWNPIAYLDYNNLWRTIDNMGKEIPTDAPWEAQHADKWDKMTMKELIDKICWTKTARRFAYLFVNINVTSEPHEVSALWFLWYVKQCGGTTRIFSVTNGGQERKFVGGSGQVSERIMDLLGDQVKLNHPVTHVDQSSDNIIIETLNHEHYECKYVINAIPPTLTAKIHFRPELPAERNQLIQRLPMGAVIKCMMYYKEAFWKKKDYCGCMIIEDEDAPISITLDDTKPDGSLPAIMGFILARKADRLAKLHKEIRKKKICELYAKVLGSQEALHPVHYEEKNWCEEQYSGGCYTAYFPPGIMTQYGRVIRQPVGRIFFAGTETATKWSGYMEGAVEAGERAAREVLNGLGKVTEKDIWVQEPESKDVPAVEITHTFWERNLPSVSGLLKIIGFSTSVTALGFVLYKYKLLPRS
Experimental: Recombinant human MAO-A and MAO-B inhibitory activities of were continuously assayed as described previously [37], using kynuramine (0.06 mM) and benzylamine (0.3 mM), respectively. […] MAO-A and MAO-B inhibitory activities were measured after preincubating enzymes and inhibitors for 15 min.
The inhibitory activities of the twelve compounds against MAO-A and MAO-B were first investigated at an inhibitor concentration of 10 µM. For the compounds showing residual activities of <50%, IC50 values for MAO-A and MAO-B inhibitions were determined. Kinetic experiments were carried out at five substrate and three inhibitor concentrations [38].

MAO-B [2] = target: T1, MAO-B; assay: Reversibility of MAO-B inhibition by dialysis; assay type: biochemical; parameters: purchased Sigma-Aldrich; conditions: for Relative MAO-B activity of dialyzed sample (AD) / Relative MAO-B activity of undialyzed sample (AU): 30 min preincubation, T3 0.080 µM, T6 0.020 µM, lazabemide 0.30 µM; for Relative MAO-B activity of dialyzed sample (AD): after dialysis; for Reversibility of MAO-B inhibition (recovery by dialysis): pargyline 0.060 µM
Experimental: Reversibility studies were performed using a dialysis-based method.
The reversibilities of T3 and T6 inhibitions were investigated by dialysis after preincubating them with MAO-B for 30 min, as previously described. […] Reversibilities were determined using the relative activities of undialyzed (AU) and dialyzed (AD) samples [40].

MAO-B [3] = target: T1, MAO-B; assay: Kinetics of MAO-B inhibition (Lineweaver-Burk and secondary plots); assay type: biochemical; parameters: purchased Sigma-Aldrich
Experimental: as §2

L929 cells = assay: MTS cytotoxicity assay in L929 cells; assay type: cell-based, mouse; conditions: 48 h
Experimental: (§1) An MTS (5-(3-carboxymethoxyphenyl)-2-(4,5-dimethyl-thiazolyl)-3-(4-sulfophenyl)) tetrazolium assay was used to evaluate the cytotoxic activities of T3 and T6 by measuring formazan absorbance. MTS is converted to formazan by mitochondria in metabolically active cells via NAD(P)H-dependent dehydrogenase enzymes. L929 cells (a mouse fibroblast cell line) were used to evaluate the cytotoxicities. Briefly, cells (5 × 10^4 cells/well) were seeded into 96-well plates in DMEM containing 10% fetal bovine serum and 1% penicillin/streptomycin, and incubated for 24 h. After supernatants were removed, the cells were treated with the compounds dissolved in DMSO (at 1, 10, 20, 50, or 100 µM) in triplicate for 48 h at 37 °C in a 5% CO2 atmosphere. MTS reagent (Uptima, Interchim, Montluçon, France) was then added to each well and incubated for 3 h. Absorbances were measured at 490 nm using a microplate reader (BioTek, Winooski, VT, USA), and cell viabilities were calculated as percentage of untreated controls.

[4] = MTS cytotoxicity assay in L929 cells; assay type: cell-based, mouse; conditions: mouse, L929 cells (mouse fibroblast cell line), 48 h treatment
Experimental: as §1

O=C(Cn1nc(N2CCN(c3ccccc3F)CC2)ccc1=O)NN=Cc1ccccc1F [Compound T9, 6-[4-(2-Fluorophenyl)piperazine-1-yl]-3(2H)-pyridazinone-2-acetyl-2-(2-fluorobenzal)hydrazon]
IC50 (MAO-B [1]): 0.2 ± 0.0017 µM | SI (IC50 of MAO-A/IC50 of MAO-B) (MAO-B [1]): 33.8 | melting point: 225 to 226 °C | remaining activity at 10 µM (recombinant human MAO-A): 35.2 ± 0.56% | IC50 (recombinant human MAO-A): 6.76 ± 0.46 µM

O=C(Cn1nc(N2CCN(c3ccccc3F)CC2)ccc1=O)NN=Cc1cccc(Br)c1 [Compound T8, 6-[4-(2-Fluorophenyl)piperazine-1-yl]-3(2H)-pyridazinone-2-acetyl-2-(3-bromobenzal)hydrazon]
IC50 (MAO-B [1]): 2.67 ± 0.051 µM | melting point: 207 to 208 °C | remaining activity at 10 µM (recombinant human MAO-A): 73.3 ± 2.86%

Cc1ccc(C=NNC(=O)Cn2nc(N3CCN(c4ccccc4F)CC3)ccc2=O)cc1 [Compound T2]
IC50 (MAO-B [1]): 0.1 ± 0.035 µM | SI (IC50 of MAO-A/IC50 of MAO-B) (MAO-B [1]): 42.9 | remaining activity at 10 µM (recombinant human MAO-A): 24.6 ± 2.86% | IC50 (recombinant human MAO-A): 4.29 ± 0.12 µM

O=C(Cn1nc(N2CCN(c3ccccc3F)CC2)ccc1=O)NN=Cc1ccc(Br)cc1 [Compound T5]
IC50 (MAO-B [1]): 1.68 ± 0.11 µM | remaining activity at 10 µM (recombinant human MAO-A): 84 ± 0.68%

Cc1ccccc1C=NNC(=O)Cn1nc(N2CCN(c3ccccc3F)CC2)ccc1=O [Compound T12, 6-[4-(2-Fluorophenyl)piperazine-1-yl]-3(2H)-pyridazinone-2-acetyl-2-(2-methylbenzal)hydrazon]
IC50 (MAO-B [1]): 0.15 ± 0.021 µM | melting point: 244 to 245 °C | remaining activity at 10 µM (recombinant human MAO-A): 61.8 ± 1.65%

COc1ccc(C=NNC(=O)Cn2nc(N3CCN(c4ccccc4F)CC3)ccc2=O)cc1 [Compound T11, 6-[4-(2-Fluorophenyl)piperazine-1-yl]-3(2H)-pyridazinone-2-acetyl-2-(4-methoxybenzal)hydrazon]
IC50 (MAO-B [1]): 6.86 ± 0.37 µM | melting point: 148 to 150 °C | remaining activity at 10 µM (recombinant human MAO-A): 70.4 ± 8.5%

O=C(Cn1nc(N2CCN(c3ccccc3F)CC2)ccc1=O)NN=Cc1ccc(F)cc1 [Compound T10, 6-[4-(2-Fluorophenyl)piperazine-1-yl]-3(2H)-pyridazinone-2-acetyl-2-(4-florobenzal)hydrazon]
IC50 (MAO-B [1]): 35.3 ± 0.39 µM | SI (IC50 of MAO-A/IC50 of MAO-B) (MAO-B [1]): 0.21 | melting point: 178 to 180 °C | remaining activity at 10 µM (recombinant human MAO-A): 33.7 ± 4.7% | IC50 (recombinant human MAO-A): 7.35 ± 0.059 µM

O=C(Cn1nc(N2CCN(c3ccccc3F)CC2)ccc1=O)NN=Cc1ccc(Cl)cc1 [Compound T4]
IC50 (MAO-B [1]): 0.099 ± 0.0069 µM | remaining activity at 10 µM (recombinant human MAO-A): 75.2 ± 4.7%

O=C(Cn1nc(N2CCN(c3ccccc3F)CC2)ccc1=O)NN=Cc1ccccc1 [Compound T1]
IC50 (MAO-B [1]): 7.68 ± 0.14 µM | remaining activity at 10 µM (recombinant human MAO-A): 96.6 ± 1.2%

CN(C)c1ccc(C=NNC(=O)Cn2nc(N3CCN(c4ccccc4F)CC3)ccc2=O)cc1 [Compound T7]
IC50 (MAO-B [1]): 0.87 ± 0.056 µM | remaining activity at 10 µM (recombinant human MAO-A): 25.4 ± 6.92% | IC50 (recombinant human MAO-A): 4.43 ± 0.29 µM

O=C(Cn1nc(N2CCN(c3ccccc3F)CC2)ccc1=O)NN=Cc1ccccc1Cl [Compound T3]
Relative MAO-B activity of dialyzed sample (AD) (MAO-B [2]): 79.4% | Relative MAO-B activity of undialyzed sample (AU) (MAO-B [2]): 22.2% | Reversibility of MAO-B inhibition (recovery by dialysis) (MAO-B [2]): reversibly inhibit MAO-B; also recorded: reversible | IC50 (MAO-B [1]): 0.039 ± 0.0028 µM | Times more potent on MAO-B than lazabemide (MAO-B [1]): 3 | SI (IC50 of MAO-A/IC50 of MAO-B) (MAO-B [1]): 107.4 | Type of MAO-B inhibition (MAO-B [3]): competitive inhibitors | remaining activity at 10 µM (recombinant human MAO-A): 24.6 ± 0.97% | IC50 (recombinant human MAO-A): 4.19 ± 0.27 µM | Cytotoxic effect on L929 cells at 1, 10, or 20 µM (L929 cells; 1, 10, or 20 µM): no significant death | Cytotoxic effect on L929 cells at 50 and 100 µM (L929 cells; 50 and 100 µM): complete cell death | IC50 at 48 h [4]: 27.1 µM

COc1ccccc1C=NNC(=O)Cn1nc(N2CCN(c3ccccc3F)CC2)ccc1=O [Compound T6]
Relative MAO-B activity of dialyzed sample (AD) (MAO-B [2]): 79.0% | Relative MAO-B activity of undialyzed sample (AU) (MAO-B [2]): 36.9% | Reversibility of MAO-B inhibition (recovery by dialysis) (MAO-B [2]): reversibly inhibit MAO-B; also recorded: reversible | IC50 (MAO-B [1]): 0.013 ± 0.0016 µM | Times more potent on MAO-B than lazabemide (MAO-B [1]): 11 | SI (IC50 of MAO-A/IC50 of MAO-B) (MAO-B [1]): 120.8 | MAO-B potency relative to pargyline (MAO-B [1]; versus reference irreversible inhibitor pargyline): twice as potent | Type of MAO-B inhibition (MAO-B [3]): competitive inhibitors | remaining activity at 10 µM (recombinant human MAO-A): 20.7 ± 0.62% | IC50 (recombinant human MAO-A): 1.57 ± 0.8 µM | Cytotoxic effect on L929 cells at any dose (L929 cells; 1, 10, 20, 50, or 100 µM): did not have a cytotoxic effect | IC50 at 48 h [4]: > 100 µM
